# Source: patent US20050244916A1, “Methods for predicting protein activity based on identification of multidimensional signatures” (priority 2004, published 2005)
# Entries after “also recorded” stand apart in the source; their conditions may differ.
# Experiments:
# [1] = literature statement, organisms not given; cited from earlier work
# [2] = test system: Candida albicans (ATCC 36082); assay: solid-phase radial diffusion antimicrobial assay, fungus; format: cell-based; conditions: pH 5.5 or pH 7.5, read after 24 h
# Experimental: (§1) Standard radial diffusion assays were conducted using 10 μg of specified peptide: defensin HNP-1 (HNP); brazzein (BRZ); charybdotoxin (CTX); or metallothionein II (MTL). Recombinant brazzein reflecting the published 3-dimensional structure (1BRZ) as determined by nuclear magnetic resonance spectroscopy was kindly provided by Drs. J. L. Markley and F. M. Assadi-Porter, the University of Wisconsin 25. Charybdotoxin, metallothionein II, and defensin HNP-1 were obtained from commercial sources. Antimicrobial activity was assessed using a well-established solid-phase diffusion method as described by Tang et al., Infect. Immun. 70: 6524-6533 (2002). Assays included well characterized organisms: Staphylococcus aureus (ATCC 27217, Gram-positive coccus); Bacillus subtilis (ATCC 6633, Gram-positive bacillus); Escherichia coli (strain ML-35, Gram-negative bacillus); and Candida albicans (ATCC 36082, fungus). In brief, organisms were cultured to logarithmic phase and inoculated (106 colony forming units/ml) into buffered molecular-biology grade agarose at the indicated pH. Peptides resuspended in sterile deionized water were introduced into wells formed in the underlay, and incubated for 3 h at 37° C. Nutrient-containing overlay medium was then applied, and assays incubated at 37° C. or 30° C. for bacteria or fungi, respectively. After 24 h, zones of complete or partial inhibition were measured. All assays were repeated independently a minimum of two times at pH 5.5 (panels A-D) or pH 7.5 (panels E-H) to assess the influences of pH on peptide antimicrobial activities versus microorganisms. Histograms express mean (±standard deviation) zones of complete (blue) or incomplete (yellow) inhibition of growth. […] Note differences in scale.
# These peptides were tested for antimicrobial activity against a panel of Gram-positive (Staphylococcus aureus, Bacillus subtilis) and Gram-negative (Escherichia coli) bacteria, and the fungus Candida albicans, using a well-established and sensitive in vitro assay [Antimicrobial activity was assessed using a well-established solid-phase diffusion method. Assays included well-characterized organisms: Staphylococcus aureus (ATCC 27217, Gram-positive); Bacillus subtilis (ATCC 6633, Gram-positive); Escherichia coli (strain ML-35, Gram-negative); and Candida albicans (ATCC 36082, fungus). In brief, organisms were cultured to logarithmic phase and inoculated at a density of 10^6 colony forming units/ml in buffered molecular grade agarose at the indicated pH. Five μg of peptide resuspended in sterile deionized water were introduced into wells formed in the underlay, and incubated for 3 h at 37° C. […] After 24 h, zones of complete or partial inhibition were measured. […]
# [3] = test system: Staphylococcus aureus (ATCC 27217), Bacillus subtilis (ATCC 6633), Escherichia coli (strain ML-35); assay: solid-phase radial diffusion antimicrobial assay, bacteria; format: cell-based; conditions: for antimicrobial activity compared with standard control defensin HNP-1: pH-specific, organism not specified (panel of bacteria and C. albicans); for antimicrobial activity against bacteria (zones of complete or partial inhibition): radial diffusion, pH 5.5 or pH 7.5, read after 24 h, S. aureus, B. subtilis, E. coli
# Experimental: as §1
# These peptides were tested for antimicrobial activity against a panel of Gram-positive (Staphylococcus aureus, Bacillus subtilis) and Gram-negative (Escherichia coli) bacteria, and the fungus Candida albicans, using a well-established and sensitive in vitro assay [Antimicrobial activity was assessed using a well-established solid-phase diffusion method. Assays included well-characterized organisms: Staphylococcus aureus (ATCC 27217, Gram-positive); Bacillus subtilis (ATCC 6633, Gram-positive); Escherichia coli (strain ML-35, Gram-negative); and Candida albicans (ATCC 36082, fungus). In brief, organisms were cultured to logarithmic phase and inoculated at a density of 10^6 colony forming units/ml in buffered molecular grade agarose at the indicated pH. Five μg of peptide resuspended in sterile deionized water were introduced into wells formed in the underlay, and incubated for 3 h at 37° C. Nutrient-containing overlay medium was then applied, and assays incubated at 37° C. or 30° C. for bacteria or fungi, respectively. Defensin HNP-1 was tested in parallel as a standard control. After 24 h, zones of complete or partial inhibition were measured. All assays were repeated independently a minimum of two times. Tang et al., Infect. Immun. 70:6524 (2002) for detailed methodology.].
Molecule,direct antimicrobial activity [1],antimicrobial activity against C. albicans (zones of complete or partial inhibition) [2],antimicrobial activity against bacteria (zones of complete or partial inhibition) [3],also measured
IP-10/CXCL10: interferon-γ inducible protein-10 kDa,direct antimicrobial activity,–,–,–
ITAC/CXCL11: interferon-inducible T cell α chemoattractant,direct antimicrobial activity,–,–,–
MIG/CXCL9: monokine induced by interferon-γ,direct antimicrobial activity,–,–,–
"PF-4: chemokine, human platelet factor-4",direct antimicrobial activity,–,–,–
"RANTES: β-chemokine, releasable upon activation normal T cell expressed/secreted",direct antimicrobial activity,–,–,–
"brazzein: sweetener protein from Pentadiplandra (J'Oblie berry); recombinant, structure 1BRZ (QDKCKKVYENYPVSKCQLANQCNYDCKLDKHARSGECFYDEKRNLQCICDYCEY; UniProt P56552 1-54, looked up)",–,direct antimicrobial activities; also recorded: previously unrecognized antimicrobial activity; also recorded: exerted direct antimicrobial activity,direct antimicrobial activities; also recorded: previously unrecognized antimicrobial activity; also recorded: exerted direct antimicrobial activity,antimicrobial activity compared with standard control defensin HNP-1 [3]: in some conditions exceeded that of HNP-1
charybdotoxin,–,direct antimicrobial activities; also recorded: previously unrecognized antimicrobial activity; also recorded: exerted direct antimicrobial activity,direct antimicrobial activities; also recorded: previously unrecognized antimicrobial activity; also recorded: exerted direct antimicrobial activity,antimicrobial activity compared with standard control defensin HNP-1 [3]: in some conditions exceeded that of HNP-1
"metallothionein II: prototype metallothionein (Saccharomyces, 1AOO) lacking the γ-core motif; comparator predicted to lack antimicrobial activity (QNEGHECQCQCGSCKNNEQCQKSCSCPTGCNSDDKCPCGNKSEETKKSCCSGK; UniProt P0CX80 9-61, looked up)",–,devoid of antimicrobial activity; also recorded: failed to exert antimicrobial activity,devoid of antimicrobial activity; also recorded: failed to exert antimicrobial activity,antimicrobial activity against C. albicans (zones of complete or partial inhibition) ([2]; listed as Metallothionein II): lacked antimicrobial activity; antimicrobial activity against bacteria (zones of complete or partial inhibition) ([3]; listed as Metallothionein II): lacked antimicrobial activity
"PBP: chemokine, platelet basic peptide (protein, UniProt P02775 35-128, looked up, Platelet basic protein, chemokine, platelet basic peptide) Platelet basic protein: SSTKGQTKRNLAKGKEESLDSDLYAELRCMCIKTTSGIHPKNIQSLEVIGKGTHCNQVEVIATLKDGRKICLDPDAPRIKKIVQKKLAGDESAD",direct antimicrobial activity,–,–,–
